The results in this text go back to patent US8569301B2, “6, 6-dioxo-6-thia-1, 4-diaza-naphthalenes as herbicides” (Syngenta Limited, priority 2009, dated 2013).

Assay type in all cases: in vivo
Assay [1] concerns crop and representative weed species. Briefly: Example B2 herbicidal action post-emergence (Table B2). The following applies: application post-emergence, rate 500 g/ha, evaluated after 15 days, score 10 to 0; for herbicidal damage score AMARE (10=total damage to plant; 0=no damage to plant): AMARE = Amaranthus retroflexus; for herbicidal damage score ECHCG (10=total damage to plant; 0=no damage to plant): ECHCG = Echinochloa crus-galli; for herbicidal damage score IPOHE (10=total damage to plant; 0=no damage to plant): IPOHE = Ipomea hederaceae; for herbicidal damage score SETFA (10=total damage to plant; 0=no damage to plant): SETFA = Setaria faberi. The procedure: Seeds of crop and representative weed species were sown in standard soil in pots. After cultivation for 14 days under controlled conditions in a glasshouse (at 22/16° C., day/night; 16 hours light; 65% humidity), the plants were sprayed. The spray solution was prepared by dissolving the technical active ingredient in acetone containing 10.56 wt % Emulsogen EL, 42.22 wt % N-methylpyrrolidone and 2.22 wt % DPG-monoethyl ether to give a 5% stock solution. This was then diluted with water containing 0.2% (v/v) of the adjuvant X-77 to give the desired treatment concentration.
The test plants were then grown on under controlled conditions in a glasshouse (at 22/16° C., day/night; 16 hours light; 65% humidity) and watered twice daily. After 15 days the test was evaluated and the assessed scores, from 10 to 0, are tabulated in Table B2 (10=total damage to plant; 0=no damage to plant).

A further assay has as its system SETFA. The assay is described as follows: Example B1 herbicidal action post-emergence, SETFA. The note with it: Rate 1000 g/ha; sprayed after 8 days cultivation; evaluated after 13 days; scores from 10 to 0 (10=total damage to plant; 0=no damage to plant). The procedure:
(§1) Seeds of a variety of test species were sown in standard soil in pots. After 8 days cultivation (post-emergence) under controlled conditions in a glasshouse (at 24/16° C., day/night; 14 hours light; 65% humidity), the plants were sprayed with an aqueous spray solution derived from the formulation of the technical active ingredient in acetone/water (50:50) solution containing 0.5% Tween 20 (polyoxyethelyene sorbitan monolaurate, CAS RN 9005-64-5). The test plants were then grown under controlled conditions in a glasshouse (at 24/16° C., day/night; 14 hours light; 65% humidity) and watered twice daily. After 13 days, the test was evaluated and the assessed scores, from 10 to 0, are tabulated in Table B1 (10=total damage to plant; 0=no damage to plant).

In a further assay the test system is AMARE. The assay is described as follows: Example B1 herbicidal action post-emergence, AMARE. The note with it: Rate 1000 g/ha; sprayed after 8 days cultivation; evaluated after 13 days; scores from 10 to 0 (10=total damage to plant; 0=no damage to plant). As to the method:
as §1

Another assay deals with SOLNI. The assay is described as follows: Example B1 herbicidal action post-emergence, SOLNI. The following applies: Rate 1000 g/ha; sprayed after 8 days cultivation; evaluated after 13 days; scores from 10 to 0 (10=total damage to plant; 0=no damage to plant). As to the method:
as §1

The subject of a further assay is ECHCG. The assay is described as follows: Example B1 herbicidal action post-emergence, ECHCG. The note with it: Rate 1000 g/ha; sprayed after 8 days cultivation; evaluated after 13 days; scores from 10 to 0 (10=total damage to plant; 0=no damage to plant). As to the method: as §1
The next assay has as its system IPOHE. The assay is described as follows: Example B1 herbicidal action post-emergence, IPOHE. The note with it: Rate 1000 g/ha; sprayed after 8 days cultivation; evaluated after 13 days; scores from 10 to 0 (10=total damage to plant; 0=no damage to plant). The procedure:
as §1

Consider `C#CCC1c2nccnc2C(O)=C(c2c(F)ccc(Br)c2Cl)S1(=O)=O` (stereo not drawn) [Compound E8], for which, in assay [1], the “herbicidal damage score AMARE (10=total damage to plant; 0=no damage to plant)” value came out at 8, the “herbicidal damage score ECHCG (10=total damage to plant; 0=no damage to plant)” value was determined as 6, the “herbicidal damage score IPOHE (10=total damage to plant; 0=no damage to plant)” value turned out to be 9 and the “herbicidal damage score SETFA (10=total damage to plant; 0=no damage to plant)” value came out at 6.

In the case of `C=CCC1c2nccnc2C(O)=C(c2c(F)ccc(Br)c2Cl)S1(=O)=O` (stereo not drawn) [Compound E20], in assay [1], the “herbicidal damage score AMARE (10=total damage to plant; 0=no damage to plant)” value is listed as 7, the “herbicidal damage score ECHCG (10=total damage to plant; 0=no damage to plant)” value was determined as 2, the “herbicidal damage score IPOHE (10=total damage to plant; 0=no damage to plant)” value worked out at 7 and the “herbicidal damage score SETFA (10=total damage to plant; 0=no damage to plant)” value stood at 4.

Turning to `CCCC1c2nccnc2C(O)=C(c2c(F)ccc(Br)c2Cl)S1(=O)=O` (stereo not drawn) [Compound E22], in assay [1], the “herbicidal damage score AMARE (10=total damage to plant; 0=no damage to plant)” value turned out to be 7, the “herbicidal damage score ECHCG (10=total damage to plant; 0=no damage to plant)” value came out at 0, the “herbicidal damage score IPOHE (10=total damage to plant; 0=no damage to plant)” value is recorded as 7 and the “herbicidal damage score SETFA (10=total damage to plant; 0=no damage to plant)” value is 2.

Regarding `CC1(C)c2nccnc2C(O)=C(c2cc(F)ccc2Cl)S1(=O)=O` [Compound F3], in assay [1], the “herbicidal damage score AMARE (10=total damage to plant; 0=no damage to plant)” value is 7, the “herbicidal damage score ECHCG (10=total damage to plant; 0=no damage to plant)” value is 4, the “herbicidal damage score IPOHE (10=total damage to plant; 0=no damage to plant)” value was found to be 8 and the “herbicidal damage score SETFA (10=total damage to plant; 0=no damage to plant)” value is recorded as 4.

In the case of `O=S1(=O)C(c2c(F)ccc(Br)c2Cl)=C(O)c2nccnc2C12CCCC2` [Compound F8], in assay [1], the “herbicidal damage score AMARE (10=total damage to plant; 0=no damage to plant)” value came out at 5, the “herbicidal damage score ECHCG (10=total damage to plant; 0=no damage to plant)” value was 6, the “herbicidal damage score IPOHE (10=total damage to plant; 0=no damage to plant)” value came out at 8 and the “herbicidal damage score SETFA (10=total damage to plant; 0=no damage to plant)” value was 5.

Consider `C#CCC1(C)c2nccnc2C(O)=C(c2c(Cl)cccc2C(F)(F)F)S1(=O)=O` (stereo not drawn) [Compound F10, 7-(2-chloro-6-trifluoromethyl-phenyl)-5-methyl-6,6-dioxo-5-prop-2-ynyl-5,6-dihydro-6-thia-1,4-diaza-naphthalen-8-ol], for which, in assay [1], the “herbicidal damage score AMARE (10=total damage to plant; 0=no damage to plant)” value was 8, the “herbicidal damage score ECHCG (10=total damage to plant; 0=no damage to plant)” value was 7, the “herbicidal damage score IPOHE (10=total damage to plant; 0=no damage to plant)” value was found to be 9 and the “herbicidal damage score SETFA (10=total damage to plant; 0=no damage to plant)” value was 8.

Regarding `O=S1(=O)C(c2cc(Cl)ccc2C(F)(F)F)=C(O)c2nccnc2C12CC2` [Compound F11, 7-(5-chloro-2-trifluoromethyl-phenyl)-5,5-cyclopropyl-6,6-dioxo-5,6-dihydro-6-thia-1,4-diaza-naphthalen-8-ol], the “assessed score, application post-emergence, SETFA” value (shortened to “assessed score … SETFA”) in the assay on SETFA worked out at 2. The “assessed score, application post-emergence, AMARE” value (from here on “assessed score … AMARE”) in the assay on AMARE is listed as 6. In the assay on SOLNI, the “assessed score, application post-emergence, SOLNI” value (“assessed score … SOLNI” for short) worked out at 7. For the same compound, the “assessed score, application post-emergence, ECHCG” value (“assessed score … ECHCG” for short) with ECHCG is 3. Moreover, the “assessed score, application post-emergence, IPOHE” value (“assessed score … IPOHE” for short) in the assay on IPOHE turned out to be 7.

Turning to `CCOCOC1=C(c2cc(Cl)ccc2C(F)(F)F)S(=O)(=O)Cc2nccnc21` [Compound X1, 7-(5-chloro-2-trifluoromethyl-phenyl)-8-ethoxymethoxy-5H-6-thia-1,4-diaza-naphthalene 6,6-dioxide], the “assessed score … SETFA” value with SETFA came to 6. Also, the “assessed score … AMARE” value in the assay on AMARE turned out to be 6. Besides, the “assessed score … SOLNI” value in the assay on SOLNI is 8. The “assessed score … ECHCG” value with ECHCG is listed as 2. Besides, the “assessed score … IPOHE” value in the assay on IPOHE worked out at 7.

Take `CC(C)C(=O)OC1=C(c2c(F)ccc(Br)c2Cl)S(=O)(=O)Cc2nccnc21` [Compound X2, isobutyric acid 7-(3-bromo-2-chloro-6-fluoro-phenyl)-6,6-dioxo-5,6-dihydro-6-thia-1,4-diaza-naphthalen-8-yl ester]: the “assessed score … SETFA” value with SETFA came to 8. The “assessed score … AMARE” value with AMARE is recorded as 10. For the same compound, the “assessed score … SOLNI” value with SOLNI is on record as 10. For the same compound, the “assessed score … ECHCG” value in the assay with ECHCG was found to be 8. Moreover, the “assessed score … IPOHE” value in the assay on IPOHE is reported as 8.
